Source: patent US12503454B2, “LPA receptor antagonists and uses thereof” (Gilead Sciences, Inc., priority 2021, dated 2025)

The molecules below were run against human LPAR1 (Homo sapiens, UniProt Q92633) (assay: LPAR1 intracellular calcium mobilization assay (antagonist mode, FLIPR)). Conditions: CHO-K1 EDG2 cells expressing human LPAR1; test compound 0.5 nM to 10 μM pre-incubated 60 minutes at 37° C., then LPA 18:2 at EC80 concentration (100 nM).
Sequence of human LPAR1 (Q92633 whole entry): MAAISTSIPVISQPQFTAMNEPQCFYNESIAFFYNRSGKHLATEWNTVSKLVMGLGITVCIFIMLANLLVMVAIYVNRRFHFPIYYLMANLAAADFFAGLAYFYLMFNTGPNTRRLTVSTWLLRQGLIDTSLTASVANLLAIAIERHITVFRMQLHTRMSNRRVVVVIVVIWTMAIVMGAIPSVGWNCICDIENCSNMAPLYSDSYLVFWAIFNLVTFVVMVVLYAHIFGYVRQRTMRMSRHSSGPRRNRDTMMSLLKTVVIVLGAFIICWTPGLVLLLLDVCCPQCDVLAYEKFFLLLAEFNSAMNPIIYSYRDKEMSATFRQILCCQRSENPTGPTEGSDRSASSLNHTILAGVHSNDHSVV
Format: cell-based
Protocol: In vitro LPAR1 activity was measured in an intracellular calcium mobilization assay. CHO-K1 EDG2 cells (DiscoverX cat #93-0644C2) expressing human LPAR1 (NM_001401.3) were seeded in a total volume of 25 μL of Dulbecco's Modification of Eagle's Medium (DMEM) with 10% Fetal Bovine Serum, 1× PenStrepGlutamine, 300 μg/ml Hygromycin, and 800 μg/ml G418 into 384-well tissue culture plate (Grenier #781091) at 15,000 cells/well and incubated at 37° C. overnight. Prior to testing, 25 μL Calcium Loading Dye Component A (FLIPR Calcium 6 Assay Kit Molecular Device # R8190) and 2.5 mM Probenecid (Invitrogen # P36400, prepared fresh) in Hank's Balanced Salt Solution (Corning #21-023-CV), 20 mM HEPES (Corning #25-060-CI), 0.1% Bovine Serum Albumin (Sigma-Aldrich # A7906-500G) was add to the cells for 60 minutes at 37° C.
Agonist dose curves of LPA 18:2 (Avanti Polar Lipids cat #857138, 0.5 nM to 10 μM) were recorded to determine the LPA 18:2 EC80 for subsequent antagonist assays. For agonist dose curves, cells were removed from the incubator 2 hours after dye loading and transferred to the FLIPR Tetra instrument (Molecular Devices, San Jose, CA). Calcium mobilization was monitored for 5 min and 10 μL 6×LPA in HBSS/20 mM Hepes/0.1% bovine serum albumin (BSA) was added to the cells 5 seconds into the assay.
To determine the LPAR1 antagonist activity of test compounds, cells were pre-incubated with test compound at a dose range of 0.5 nM to 10 μM, followed by LPA at EC80 concentration (100 nM). After dye loading, cells were removed from the incubator and 0.3 μL of 200× antagonist was added. Cells were incubated for 60 minutes at 37° C. Antagonist activity was measured on a FLIPR Tetra. Calcium mobilization was monitored for 3.5 minutes and 10 μL 6×EC80 LPA in HBSS, 20 mM HEPES, and 0.1% BSA was added to the cells 5 seconds into the assay. Signal amplitude (Maximum minus minimum) values were plotted against log10 of antagonist concentration using Dose Response Tool (Gilead Sciences Inc.) to determine […].
To assess the antagonistic potential of exemplified compounds […] were determined for Compounds 1 to 66 in the LPAR1 calcium mobilization assay. The compound numbers correspond to the compound numbers in Examples 1 to 18. N/A=not available.
An EC50 of 62.7 nM was found for `COC12CC(NC(=O)c3ccc(-c4nnn(C)c4NC(=O)O[C@H](C)c4cccnc4Cl)nc3)(C1)C2` [Compound 11, (R)-1-(2-chloro-pyridin-3-yl)-ethyl (4-(5-((3-methoxybicyclo-[1.1.1]pentan-1-yl)carbamoyl)-pyridin-2-yl)-1-methyl-1H-1,2,3-triazol-5-yl)carbamate] in this work.
An EC50 of 55.9 nM was found for `COc1cc(NC(=O)c2ccc(-c3nnn(C)c3NC(=O)O[C@H](C)c3cc(F)cnc3F)nc2)ccn1` [Compound 32, (R)-1-(2,5-difluoro-pyridin-3-yl)ethyl (4-(5-((2-methoxy-pyridin-4-yl)-carbamoyl)pyridin-2-yl)-1-methyl-1H-1,2,3-triazol-5-yl)-carbamate] in this work.
An EC50 of 210 nM was found for `C[C@@H](OC(=O)Nc1c(-c2ccc(C(=O)NC34CC(F)(C3)C4)c(C(F)(F)F)n2)nnn1C)c1cccnc1Cl` [Compound 66, (R)-1-(2-chloropyridin-3-yl)ethyl (4-(5-((3-fluorobicyclo[1.1.1]pentan-1-yl)carbamoyl)-6-(trifluoromethyl)pyridin-2-yl)-1-methyl-1H-1,2,3-triazol-5-yl)carbamate] in this work.
An EC50 of 7.6 nM was found for `C[C@@H](OC(=O)Nc1c(-c2ccc(C(=O)Nc3ccc(-c4cccnc4)cc3)cn2)nnn1C)c1cc(F)cnc1F` [Compound 40, (R)-1-(2,5-difluoro-pyridin-3-yl)ethyl (1-methyl-4-(5-((4-(pyridin-3-yl)phenyl)carbam-oyl)pyridin-2-yl)-1H-1,2,3-triazol-5-yl)carbamate] in this work.
An EC50 of 84.8 nM was found for `C[C@@H](OC(=O)Nc1c(-c2ccc(C(=O)NC34CC(C(F)(F)F)(C3)C4)cn2)nnn1C)c1cc(F)cnc1F` [Compound 22, (R)-1-(2,5-difluoro-pyridin-3-yl)ethyl (1-methyl-4-(5-((3-(trifluorometh-yl)bicyclo[1.1.1]-pentan-1-yl)carbam-oyl)pyridin-2-yl)-1H-1,2,3-triazol-5-yl)carbamate] in this work.
An EC50 of 9.1 nM was found for `Cc1nnc(-c2ccc(NC(=O)c3ccc(-c4nnn(C)c4NC(=O)O[C@H](C)c4cc(F)cnc4F)nc3)cc2)o1` [Compound 39, (R)-1-(2,5-difluoro-pyridin-3-yl)ethyl (1-methyl-4-(5-((4-(5-methyl-1,3,4-oxadiazol-2-yl)phenyl)-carbamoyl)-pyridin-2-yl)-1H-1,2,3-triazol-5-yl)carbamate] in this work.
An EC50 of 364 nM was found for `C[C@@H](OC(=O)Nc1c(-c2ccc(C(=O)Nc3ccc(C(F)(F)F)nc3)cn2)nnn1C)c1cc(F)cnc1F` [Compound 25, (R)-1-(2,5-difluoro-pyridin-3-yl)ethyl (1-methyl-4-(5-((6-(trifluoromethyl)-pyridin-3-yl)-carbamoyl)pyridin-2-yl)-1H-1,2,3-triazol-5-yl)-carbamate] in this work.
An EC50 of 48.3 nM was found for `Cc1nc(-c2nnn(C)c2NC(=O)O[C@H](C)c2cccnc2Cl)ccc1C(=O)NC12CC(Cl)(C1)C2` [Compound 58, (R)-1-(2-chloropyridin-3-yl)ethyl (4-(5-((3-chlorobicyclo[1.1.1]pentan-1-yl)carbamoyl)-6-methylpyridin-2-yl)-1-methyl-1H-1,2,3-triazol-5-yl)carbamate] in this work.
An EC50 of 334 nM was found for `C[C@@H](OC(=O)Nc1c(-c2ccc(C(=O)Nc3cccnc3)cn2)nnn1C)c1cccnc1Cl` [Compound 7, (R)-1-(2-chloro-pyridin-3-yl)-ethyl (1-methyl-4-(5-(pyridin-3-ylcarbamoyl)-pyridin-2-yl)-1H-1,2,3-triazol-5-yl)carbamate] in this work.
An EC50 of 26.5 nM was found for `COC(=O)C12CC(NC(=O)c3ccc(-c4nnn(C)c4NC(=O)O[C@H](C)c4cccnc4Cl)nc3)(C1)C2` [Compound 12, (R)-methyl 3-(6-(5-(((1-(2-chloro-pyridin-3-yl)-ethoxy)carbon-yl)amino)-1-methyl-1H-1,2,3-triazol-4-yl)nicotinamido)-bicyclo[1.1.1]-pentane-1-carbox-ylate] in this work.
An EC50 of 196 nM was found for `C[C@@H](OC(=O)Nc1c(-c2ccc(C(=O)N[C@@H]3C[C@H]3c3ccccc3)cn2)nnn1C)c1cc(F)cnc1F` [Compound 37, (R)-1-(2,5-difluoro-pyridin-3-yl)ethyl (1-methyl-4-(5-(((1R,2S)-2-phenyl-cyclopropyl)carbam-oyl)pyridin-2-yl)-1H-1,2,3-triazol-5-yl)carbamate] in this work.
An EC50 of 42.9 nM was found for `C[C@@H](OC(=O)Nc1c(-c2ccc(C(=O)NC34CC(C#N)(C3)C4)cn2)nnn1C)c1cccnc1Cl` [Compound 5, (R)-1-(2-chloro-pyridin-3-yl)-ethyl (4-(5-((3-cyanobicyclo [1.1.1]pentan-1-yl)carbamoyl)-pyridin-2-yl)-1-methyl-1H-1,2,3-triazol-5-yl)carbamate] in this work.
An EC50 of 439 nM was found for `C[C@@H](OC(=O)Nc1c(-c2ccc(C(=O)NC34CC(C3)C4)cn2)nnn1C)c1cccnc1Cl` [Compound 10, (R)-1-(2-chloro-pyridin-3-yl)-ethyl (4-(5-(bicyclo[1.1.1]-pentan-1-yl-carbamoyl)-pyridin-2-yl)-1-methyl-1H-1,2,3-triazol-5-yl)carbamate] in this work.
An EC50 of 24.4 nM was found for `C[C@@H](OC(=O)Nc1c(-c2ccc(C(=O)Nc3cnnc(Cl)c3)cn2)nnn1C)c1cc(F)cnc1F` [Compound 38, (R)-1-(2,5-difluoro-pyridin-3-yl)ethyl (4-(5-((6-chloro-pyridazin-4-yl)-carbamoyl)pyridin-2-yl)-1-methyl-1H-1,2,3-triazol-5-yl)-carbamate] in this work.
An EC50 of 142 nM was found for `C[C@@H](OC(=O)Nc1c(-c2ccc(C(=O)NC34CC(F)(C3)C4)cn2)nnn1C)c1cccnc1Cl` [Compound 4, (R)-1-(2-chloro-pyridin-3-yl)-ethyl (4-(5-((3-fluorobicyclo-[1.1.1]pentan-1-yl)carbamoyl)-pyridin-2-yl)-1-methyl-1H-1,2,3-triazol-5-yl)carbamate] in this work.
For `C[C@@H](OC(=O)Nc1c(-c2ccc(C(=O)NC34CC(c5ccccc5)(C3)C4)cn2)nnn1C)c1cc(F)cnc1F` [Compound 26], the EC50 was < 4.6 nM.
An EC50 of 251 nM was found for `C[C@@H](OC(=O)Nc1c(-c2ccc(C(=O)NC34CC(CO)(C3)C4)cn2)nnn1C)c1cccnc1Cl` [Compound 13] in this work.
An EC50 of 19.4 nM was found for `C[C@@H](OC(=O)Nc1c(-c2ccc(C(=O)Nc3ncc(C(F)(F)F)s3)cn2)nnn1C)c1cc(F)cnc1Cl` [Compound 53, (R)-1-(2-chloro-5-fluoropyridin-3-yl)ethyl (1-methyl-4-(5-((5-(trifluoro-methyl)thiazol-2-yl)carbamoyl)-pyridin-2-yl)-1H-1,2,3-triazol-5-yl)carbamate] in this work.
An EC50 of 3590 nM was found for `C[C@@H](OC(=O)Nc1c(-c2ccc(C(=O)NC3CCOCC3)cn2)nnn1C)c1cccnc1Cl` [Compound 16, (R)-1-(2-chloro-pyridin-3-yl)-ethyl (1-methyl-4-(5-((tetrahydro-2H-pyran-4-yl)-carbamoyl)-pyridin-2-yl)-1H-1,2,3-triazol-5-yl)carbamate] in this work.
An EC50 of 47.5 nM was found for `C[C@@H](OC(=O)Nc1c(-c2ccc(C(=O)Nc3ccc(C#N)c(C(F)(F)F)c3)cn2)nnn1C)c1cc(F)cnc1F` [Compound 34, (R)-1-(2,5-difluoro-pyridin-3-yl)ethyl (4-(5-((4-cyano-3-(trifluoromethyl)-phenyl)carbamoyl)-pyridin-2-yl)-1-methyl-1H-1,2,3-triazol-5-yl)-carbamate] in this work.
An EC50 of 93.4 nM was found for `C[C@@H](OC(=O)Nc1c(-c2ccc(C(=O)NC34CC(F)(C3)C4)c(Cl)n2)nnn1C)c1cccnc1Cl` [Compound 60, (R)-1-(2-chloropyridin-3-yl)ethyl (4-(6-chloro-5-((3-fluorobicyclo[1.1.1]pentan-1-yl)carbamoyl)pyridin-2-yl)-1-methyl-1H-1,2,3-triazol-5-yl)carbamate] in this work.
An EC50 of 139 nM was found for `C[C@@H](OC(=O)Nc1c(-c2ccc(C(=O)NC34CC(C(F)(F)F)(C3)C4)cn2)nnn1C)c1cccnc1F` [Compound 56, (R)-1-(2-fluoropyridin-3-yl)ethyl (1-methyl-4-(5-((3-(trifluoro-methyl)bicyclo[1.1.1]-pentan-1-yl)carbamoyl)-pyridin-2-yl)-1H-1,2,3-triazol-5-yl)carbamate] in this work.
An EC50 of 1420 nM was found for `C[C@@H](OC(=O)Nc1c(-c2ccc(C(=O)NC3CC(F)(F)C3)cn2)nnn1C)c1cccnc1Cl` [Compound 3, (R)-1-(2-chloro-pyridin-3-yl)-ethyl (4-(5-((3,3-difluoro-cyclobutyl)-carbamoyl)-pyridin-2-yl)-1-methyl-1H-1,2,3-triazol-5-yl)carbamate] in this work.
An EC50 of 281 nM was found for `C[C@@H](OC(=O)Nc1c(-c2ccc(C(=O)Nc3nc(C(F)(F)F)co3)cn2)nnn1C)c1cc(F)cnc1Cl` [Compound 52] in this work.
